Experimental data from EPA's ToxRefDB 2.

Assays:
[1] = tested on: hamster; conditions: Subchronic oral toxicity in rodents, golden syrian, Feed, dose end: 13 week, group: systemic
[2] = tested on: rat; conditions: Prenatal developmental toxicity study, wistar, Oral, Gavage/Intubation, dose end: 16 GD
[3] = tested on: rat; conditions: Combined chronic toxicity/carcinogenicity, wistar, Oral, Feed, dose end: 104 week, group: systemic
[4] = tested on: dog; conditions: Subchronic oral toxicity in nonrodent, beagle, Capsule, dose end: 90 day, group: systemic
[5] = tested on: hamster; conditions: Carcinogenicity, golden syrian, Oral, Feed, dose end: 80 week, group: systemic
[6] = tested on: dog; conditions: Chronic toxicity, beagle, Oral, Capsule, dose end: 52 week, group: systemic
[7] = tested on: rat; conditions: Prenatal developmental toxicity study, wistar, Oral, Gavage/Intubation, dose end: 16 GD; remark: listed apart in the source
[8] = tested on: hamster; conditions: Subchronic oral toxicity in rodents, golden syrian, Feed, dose end: 90 day, group: systemic, systemic / clinical chemistry / cholesterol / cholesterol + systemic / clinical chemistry / creatinine / creatinine + systemic / clinical …
[9] = tested on: rabbit; conditions: Prenatal developmental toxicity study; new zealand white; Oral; Gavage/Intubation; dose end: 19 GD; group: maternal; reproductive / reproductive performance / aborted / aborted + reproductive / reproductive performance / resorptions / resorptions + systemic…
[10] = tested on: rat; conditions: Subchronic oral toxicity in rodents, wistar, Feed, dose end: 90 day, group: systemic, systemic / hematology / erythrocyte (rbc) count differential / erythrocyte (rbc) + systemic / hematology / hematocrit (hct) / hematocrit (…
[11] = systemic / in life observation / body weight / body weight gain + systemic / organ weight / liver / absolute + systemic / clinical chemistry…
[12] = group: developmental, developmental / developmental malformation / bone / incomplete ossification + developmental / developmental malformation / bone / [other] + …
[13] = group: maternal, systemic / in life observation / body weight / body weight + systemic / in life observation / food consumption / food consumption + systemic…
[14] = systemic / in life observation / body weight / body weight gain + systemic / in life observation / food consumption / food consumption + …
[15] = systemic / clinical chemistry / aminopyrine-n-demethylase / aminopyrine-n-demethylase
[16] = systemic / pathology microscopic / liver / adenoma + systemic / pathology microscopic / liver / hemangioma + systemic / pathology …
[17] = systemic / pathology microscopic / ovary / sex cord stromal tumor, benign
[18] = systemic / clinical chemistry / alanine aminotransferase (alt/sgpt) / alanine aminotransferase (alt/sgpt) + systemic / organ weight / liver…
[19] = group: developmental, developmental / developmental malformation / bone / bipartite ossification + developmental / developmental malformation / bone / delayed …
[20] = group: maternal, systemic / in life observation / food consumption / food consumption + systemic / in life observation / mortality / mortality + reproductive…

CCO/N=C(\CC)C1=C(O)CC(c2c(C)cc(C)cc2C)CC1=O (stereo unspecified) [Tralkoxydim] was tested, and the LOAEL ([1]; systemic / in life observation / body weight / body weight gain + systemic / organ weight / liver / absolute) was 650 mg/kg/day, the NEL [1, 11] was 122 mg/kg/day and the NOAEL [1, 11] was 328 mg/kg/day. The LEL ([1]; systemic / pathology microscopic / liver / proliferation) was 328 mg/kg/day, the LOAEL ([2]; group: developmental, developmental / developmental malformation / bone / incomplete ossification) was 30 mg/kg/day and the LEL ([2]; group: developmental, developmental / developmental malformation / bone / incomplete ossification + developmental / developmental malformation / bone / [other]) was 30 mg/kg/day. The NEL [2, 12] was 3 mg/kg/day, the NOAEL [2, 12] was 3 mg/kg/day and the LEL [2, 13] was 200 mg/kg/day. It also gave an LOAEL [2, 13] of 200 mg/kg/day, an LOAEL [3, 14] of 118 mg/kg/day and an NEL [3, 14] of 2.3 mg/kg/day. The NOAEL [3, 14] was 23.1 mg/kg/day, the LEL ([3]; systemic / pathology microscopic / pituitary gland / adenoma) was 23.1 mg/kg/day and the LEL [4, 15] was 0.5 mg/kg/day. For the same molecule, the LOAEL [4, 15] was 5 mg/kg/day, the NEL [4, 15] was < 0.5 mg/kg/day and the NOAEL ([4]; systemic / clinical chemistry / aminopyrine-n-demethylase / aminopyrine-n-demethylase + systemic / clinical chemistry / albumin / albumin + …) was 0.5 mg/kg/day. The LOAEL [5, 16] was > 672 mg/kg/day, the NOAEL [5, 16] was ≥ 672 mg/kg/day and the LEL [5, 17] was 27.8 mg/kg/day. The NEL [5, 17] was < 27.8 mg/kg/day, the LEL [6, 18] was 5 mg/kg/day and the LOAEL [6, 18] was 5 mg/kg/day. The NOAEL [6, 18] was 0.5 mg/kg/day, the NEL ([6]; systemic / clinical chemistry / cholesterol / cholesterol + systemic / clinical chemistry / protein / protein + systemic / clinical …) was 0.5 mg/kg/day and the LOAEL [7, 19] was 30 mg/kg/day. It also gave an NEL [7, 19] of 1 mg/kg/day, an NOAEL [7, 19] of 3 mg/kg/day and an LEL ([7]; group: developmental, developmental / developmental malformation / bone / delayed ossification) of 3 mg/kg/day. The LOAEL ([7]; group: maternal, systemic / in life observation / food consumption / food consumption + systemic / in life observation / mortality / mortality) was 200 mg/kg/day, the LEL [7, 20] was 200 mg/kg/day and the NEL [7, 20] was 30 mg/kg/day. It also gave an NOAEL [7, 20] of 30 mg/kg/day, an LEL [8] of 337 mg/kg/day and an LOAEL [8] of 337 mg/kg/day. For the same molecule, the NEL [8] was 41 mg/kg/day, the NOAEL [8] was 41 mg/kg/day and the LEL [9] was 100 mg/kg/day. The LOAEL [9] was 100 mg/kg/day, the NEL [9] was 20 mg/kg/day and the NOAEL [9] was 20 mg/kg/day. It also gave an LEL [10] of 205 mg/kg/day, an LOAEL [10] of 205 mg/kg/day and an NEL [10] of 20.5 mg/kg/day. For the same molecule, the NOAEL [10] was 20.5 mg/kg/day.
